Counter-ions that a name gives are not always drawn.
The compounds below were run on COL1A1 mRNA (assay: qRT-PCR of COL1A1 mRNA in human primary hepatic stellate cells). Details: 3 μM, relative to GAPDH.
Format: cell-based
Procedure: Cells were plated at a density of 17000 cells/well in a 96-well plate and allowed to adhere overnight. The following day cell culture media was replenished with the indicated concentration(s) of compound for 18 hours. […] Medium was removed after 18 hours and cells were processed for further analysis, e.g. qRT-PCR.
Analysis of the fold changes in expression as measured by qRT-PCR were performed using the technique below. The control was DMSO, and the treatment was the selected compound (CPD). The internal control was GAPDH or B-Actin (or otherwise indicated), and the gene of interest is the target. First, the averages of the 4 conditions were calculated for normalization: DMSO:GAPDH, DMSO:Target, CPD: GAPDH, and CPD:Target. Next, the ΔCT of both control and treatment were calculated to normalize to internal control (GAPDH) using (DMSO:Target)−(DMSO:GAPDH)=ΔCT control and (CPD:Target)−(CPD: GAPDH)=ΔCT experimental. Then, the ΔΔCT was calculated by ΔCT experimental−ΔCT control.
Candidate compounds were tested in stellate cells for their ability to modulate PNPLA3 and COL1A1. Stellate cells were treated with serial dilutions of the compounds, ranging from 0.1 μM to 100 μM. Changes in PNPLA3 (or COL1A1) mRNA levels in stellate cells were analyzed with qRT-PCR.

Structure (SMILES) | Primary Stellate cells COL1A1 (fold change in mRNA expression)
Cc1nc(-c2cn3c(n2)-c2ccc(-c4cnn(C(C)(C)C(N)=O)c4)cc2OCC3)n(C(C)C)n1 [GDC-0032] | 1.05
COc1ncc(-c2ccc3nccc(-c4ccnnc4)c3c2)cc1NS(=O)(=O)c1ccc(F)cc1F [GSK2126458] | 0.42
C[C@H](NC(=O)c1c(N)nn2cccnc12)c1cc2cccc(C#Cc3cnn(C)c3)c2c(=O)n1-c1ccccc1 [IPI-549] | 1.00
CO[C@@H](C)Cn1c(=O)n(C)c2cnc3ccc(-c4cncc(C(C)(C)O)c4)cc3c21 [LY3023414] | 0.49
O=[N+]([O-])c1ccc(Nc2nc(N3CCOCC3)nc(N3CCOCC3)n2)cc1 [MHY1485] | 0.87
Nc1nc2cc(-c3ccc4ncc(C(=O)N5CCOCC5)n4c3)ccc2o1 [MLN1117] | 1.14
Nc1cc(C(F)(F)F)c(-c2cc(N3CCOCC3)nc(N3CCOCC3)n2)cn1 [NVP-BKM120 (Hydrochloride)] | 0.70
Nc1cc(C(F)(F)F)c(-c2cc(N3CCOCC3)nc(N3CCOCC3)n2)cn1 [NVP-BKM120] | 0.66
Nc1cc(C(F)(F)F)c(-c2nc(N3CCOCC3)nc(N3CCOCC3)n2)cn1 [PQR309] | 0.81

Same assay, conditions: 3 μM, relative to GAPDH; listed as GDC-0980

Structure (SMILES) | Primary Stellate cells COL1A1 (fold change in mRNA expression)
Cc1c(CN2CCN(C(=O)[C@H](C)O)CC2)sc2c(N3CCOCC3)nc(-c3cnc(N)nc3)nc12 [Apitolisib] | 0.61

These compounds were tested on PNPLA3 mRNA (assay: qRT-PCR of PNPLA3 mRNA in human primary hepatic stellate cells). Details: 3 μM, relative to GAPDH.
Format: cell-based

Structure (SMILES) | Primary Stellate cells PNPLA3 (fold change in mRNA expression)
Cc1nc(-c2cn3c(n2)-c2ccc(-c4cnn(C(C)(C)C(N)=O)c4)cc2OCC3)n(C(C)C)n1 [GDC-0032] | 0.61
COc1ncc(-c2ccc3nccc(-c4ccnnc4)c3c2)cc1NS(=O)(=O)c1ccc(F)cc1F [GSK2126458] | 0.90
C[C@H](NC(=O)c1c(N)nn2cccnc12)c1cc2cccc(C#Cc3cnn(C)c3)c2c(=O)n1-c1ccccc1 [IPI-549] | 0.75
CO[C@@H](C)Cn1c(=O)n(C)c2cnc3ccc(-c4cncc(C(C)(C)O)c4)cc3c21 [LY3023414] | 0.94
O=[N+]([O-])c1ccc(Nc2nc(N3CCOCC3)nc(N3CCOCC3)n2)cc1 [MHY1485] | 0.86
Nc1nc2cc(-c3ccc4ncc(C(=O)N5CCOCC5)n4c3)ccc2o1 [MLN1117] | 0.70
Nc1cc(C(F)(F)F)c(-c2cc(N3CCOCC3)nc(N3CCOCC3)n2)cn1 [NVP-BKM120 (Hydrochloride)] | 0.43
Nc1cc(C(F)(F)F)c(-c2cc(N3CCOCC3)nc(N3CCOCC3)n2)cn1 [NVP-BKM120] | 0.43
Nc1cc(C(F)(F)F)c(-c2nc(N3CCOCC3)nc(N3CCOCC3)n2)cn1 [PQR309] | 0.88

Same assay, conditions: 3 μM, relative to GAPDH; listed as GDC-0980

Structure (SMILES) | Primary Stellate cells PNPLA3 (fold change in mRNA expression)
Cc1c(CN2CCN(C(=O)[C@H](C)O)CC2)sc2c(N3CCOCC3)nc(-c3cnc(N)nc3)nc12 [Apitolisib] | 0.67

What follows are compounds tested on PCSK9 mRNA (assay: qRT-PCR of PCSK9 mRNA in primary hepatocytes). Details: donor 4178, 3 μM, relative to GUSB.
Format: cell-based, human

Structure (SMILES) | Primary Hepatocytes 4178 PCSK9 (fold change in mRNA expression)
Cc1nc(-c2cn3c(n2)-c2ccc(-c4cnn(C(C)(C)C(N)=O)c4)cc2OCC3)n(C(C)C)n1 [GDC-0032] | 0.47
COc1ncc(-c2ccc3nccc(-c4ccnnc4)c3c2)cc1NS(=O)(=O)c1ccc(F)cc1F [GSK2126458] | 0.91
C[C@H](NC(=O)c1c(N)nn2cccnc12)c1cc2cccc(C#Cc3cnn(C)c3)c2c(=O)n1-c1ccccc1 [IPI-549] | 0.74
CO[C@@H](C)Cn1c(=O)n(C)c2cnc3ccc(-c4cncc(C(C)(C)O)c4)cc3c21 [LY3023414] | 0.65
O=[N+]([O-])c1ccc(Nc2nc(N3CCOCC3)nc(N3CCOCC3)n2)cc1 [MHY1485] | 1.04

Other lines, results leading:

Primary Hepatocytes 4178 PCSK9 (fold change in mRNA expression) | Structure (SMILES)
0.69 | Nc1nc2cc(-c3ccc4ncc(C(=O)N5CCOCC5)n4c3)ccc2o1 [MLN1117]
0.50 | Nc1cc(C(F)(F)F)c(-c2cc(N3CCOCC3)nc(N3CCOCC3)n2)cn1 [NVP-BKM120 (Hydrochloride)]
0.75 | Nc1cc(C(F)(F)F)c(-c2cc(N3CCOCC3)nc(N3CCOCC3)n2)cn1 [NVP-BKM120]
0.50 | Nc1cc(C(F)(F)F)c(-c2nc(N3CCOCC3)nc(N3CCOCC3)n2)cn1 [PQR309]

Same assay, conditions: donor 4178, 3 μM, relative to GUSB; listed as GDC-0980

Structure (SMILES) | Primary Hepatocytes 4178 PCSK9 (fold change in mRNA expression)
Cc1c(CN2CCN(C(=O)[C@H](C)O)CC2)sc2c(N3CCOCC3)nc(-c3cnc(N)nc3)nc12 [Apitolisib] | 0.40

The compounds below were run on PNPLA3 mRNA (assay: qRT-PCR of PNPLA3 mRNA in compound-treated primary human hepatocytes). Details: donor 4178, 3 μM, relative to GUSB.
Procedure: Cryopreserved hepatocytes were cultured in plating media for 16 hours, transferred to maintenance media for 4 hours. Cultured on serum-free media for 2 hours, then a compound was added. The hepatocytes were maintained on the serum-free media for 16 hours prior to gene expression analysis.
Human hepatocytes cultured as described above were plated in 24-well format, adding 375,000 cells per well in a volume of 500 μl plating medium. Four hours before treatment, cells were washed with PBS and the medium was changed to either: fresh maintenance medium (complete) or modified maintenance medium.
Compound stocks were prepared at 1000× final concentration and added in a 2-step dilution to the medium to reduce risk of a compound precipitating out of solution when added to the cells, and to ensure reasonable pipetting volumes. One at a time, each compound was first diluted 10-fold in warm (about 37° C.) modified maintenance medium (initial dilution=ID), mixed by vortexing, and the ID was diluted 100-fold into the cell culture (e.g. 5.1 μl into 1 well of a 24-well plate containing 0.5 mL medium). The plate was mixed by carefully swirling and after all wells were treated and returned to the incubator overnight. If desired, separate plates/wells were treated with vehicle-only controls and/or positive controls. If using multi-well plates, controls were included on each plate. After about 18 hours, cells were harvested for further analysis, e.g., ChIP-seq, RNA-seq, ATAC-seq, etc.
Analysis of the fold changes in expression as measured by qRT-PCR were performed using the technique below. The control was DMSO, and the treatment was the selected compound (CPD). The internal control was GAPDH or B-Actin (or otherwise indicated), and the gene of interest is the target. First, the averages of the 4 conditions were calculated for normalization: DMSO:GAPDH, DMSO:Target, CPD: GAPDH, and CPD:Target. Next, the ΔCT of both control and treatment were calculated to normalize to internal control (GAPDH) using (DMSO:Target)−(DMSO:GAPDH)=ΔCT control and (CPD:Target)−(CPD: GAPDH)=ΔCT experimental. Then, the ΔΔCT was calculated by ΔCT experimental−ΔCT control. The Expression Fold Change (or Relative Quantification, abbreviated as RQ) was calculated by 2−(ΔΔCT) (2-fold expression change was shown by RNA-Seq results provided herein).
The aim of the validation studies was to test the identified compounds from key pathways, and expand the compound franchise to identify other potential hits. Candidate compounds were subjected to validation with qRT-PCR in human hepatocytes. qRT-PCR was performed on samples of primary human hepatocytes from a second donor treated with the candidate compounds. Compounds were tested at concentrations ranging from 0.01 μM to 50 μM, with the majority tested at 10 μM.
Primary human hepatocytes and stellate cells were also incubated with inhibitors of the TGFβ pathway and PNPLA3 gene expression changes assessed via qRT-PCR as previously described. In addition, primary hepatocytes and stellate cells were treated with TGFβ-ligand alone or with selected the small molecule inhibitors for 18 hours and subsequently harvested. for gene expression assays.
The other set was harvest for mRNA processing as previously described.

Structure (SMILES) | Primary Hepatocytes 4178 PNPLA3 (fold change in mRNA expression)
Cc1nc(-c2cn3c(n2)-c2ccc(-c4cnn(C(C)(C)C(N)=O)c4)cc2OCC3)n(C(C)C)n1 [GDC-0032] | 0.58
COc1ncc(-c2ccc3nccc(-c4ccnnc4)c3c2)cc1NS(=O)(=O)c1ccc(F)cc1F [GSK2126458] | 0.92
C[C@H](NC(=O)c1c(N)nn2cccnc12)c1cc2cccc(C#Cc3cnn(C)c3)c2c(=O)n1-c1ccccc1 [IPI-549] | 0.68
CO[C@@H](C)Cn1c(=O)n(C)c2cnc3ccc(-c4cncc(C(C)(C)O)c4)cc3c21 [LY3023414] | 0.80
O=[N+]([O-])c1ccc(Nc2nc(N3CCOCC3)nc(N3CCOCC3)n2)cc1 [MHY1485] | 1.10

Continued, values first:

Primary Hepatocytes 4178 PNPLA3 (fold change in mRNA expression) | Structure (SMILES)
1.57 | Nc1nc2cc(-c3ccc4ncc(C(=O)N5CCOCC5)n4c3)ccc2o1 [MLN1117]
0.56 | Nc1cc(C(F)(F)F)c(-c2cc(N3CCOCC3)nc(N3CCOCC3)n2)cn1 [NVP-BKM120 (Hydrochloride)]
0.60 | Nc1cc(C(F)(F)F)c(-c2cc(N3CCOCC3)nc(N3CCOCC3)n2)cn1 [NVP-BKM120]
0.47 | Nc1cc(C(F)(F)F)c(-c2nc(N3CCOCC3)nc(N3CCOCC3)n2)cn1 [PQR309]

Same assay, conditions: donor 4178, 3 μM, relative to GUSB; listed as GDC-0980

Structure (SMILES) | Primary Hepatocytes 4178 PNPLA3 (fold change in mRNA expression)
Cc1c(CN2CCN(C(=O)[C@H](C)O)CC2)sc2c(N3CCOCC3)nc(-c3cnc(N)nc3)nc12 [Apitolisib] | 0.37

Same assay, conditions: donor 4282, 3 μM, relative to GUSB

Structure (SMILES) | Primary Hepatocytes 4282 PNPLA3 (fold change in mRNA expression)
Cc1nc(-c2cn3c(n2)-c2ccc(-c4cnn(C(C)(C)C(N)=O)c4)cc2OCC3)n(C(C)C)n1 [GDC-0032] | 0.60
COc1ncc(-c2ccc3nccc(-c4ccnnc4)c3c2)cc1NS(=O)(=O)c1ccc(F)cc1F [GSK2126458] | 0.80
C[C@H](NC(=O)c1c(N)nn2cccnc12)c1cc2cccc(C#Cc3cnn(C)c3)c2c(=O)n1-c1ccccc1 [IPI-549] | 0.68
CO[C@@H](C)Cn1c(=O)n(C)c2cnc3ccc(-c4cncc(C(C)(C)O)c4)cc3c21 [LY3023414] | 1.00
O=[N+]([O-])c1ccc(Nc2nc(N3CCOCC3)nc(N3CCOCC3)n2)cc1 [MHY1485] | 1.20

The next lines start with the values.

Primary Hepatocytes 4282 PNPLA3 (fold change in mRNA expression) | Structure (SMILES)
0.97 | Nc1nc2cc(-c3ccc4ncc(C(=O)N5CCOCC5)n4c3)ccc2o1 [MLN1117]
0.70 | Nc1cc(C(F)(F)F)c(-c2cc(N3CCOCC3)nc(N3CCOCC3)n2)cn1 [NVP-BKM120 (Hydrochloride)]
0.70 | Nc1cc(C(F)(F)F)c(-c2cc(N3CCOCC3)nc(N3CCOCC3)n2)cn1 [NVP-BKM120]
0.60 | Nc1cc(C(F)(F)F)c(-c2nc(N3CCOCC3)nc(N3CCOCC3)n2)cn1 [PQR309]

Same assay, conditions: donor 4282, 3 μM, relative to GUSB; listed as GDC-0980

Structure (SMILES) | Primary Hepatocytes 4282 PNPLA3 (fold change in mRNA expression)
Cc1c(CN2CCN(C(=O)[C@H](C)O)CC2)sc2c(N3CCOCC3)nc(-c3cnc(N)nc3)nc12 [Apitolisib] | 0.40

Same assay, conditions: hepatocytes, 0.1 uM

Structure (SMILES) | Relative PINPLA3 mRNA
Cc1c(CN2CCN(C(=O)[C@H](C)O)CC2)sc2c(N3CCOCC3)nc(-c3cnc(N)nc3)nc12 [Apitolisib] | 0.893
Nc1cc(C(F)(F)F)c(-c2nc(N3CCOCC3)nc(N3CCOCC3)n2)cn1 [PQR309] | 1.353

Same assay, conditions: hepatocytes, 0.3 uM

Structure (SMILES) | Relative PINPLA3 mRNA
Cc1c(CN2CCN(C(=O)[C@H](C)O)CC2)sc2c(N3CCOCC3)nc(-c3cnc(N)nc3)nc12 [Apitolisib] | 0.669
Nc1cc(C(F)(F)F)c(-c2nc(N3CCOCC3)nc(N3CCOCC3)n2)cn1 [PQR309] | 0.8236

Same assay, conditions: hepatocytes, 1 uM

Structure (SMILES) | Relative PINPLA3 mRNA
Cc1c(CN2CCN(C(=O)[C@H](C)O)CC2)sc2c(N3CCOCC3)nc(-c3cnc(N)nc3)nc12 [Apitolisib] | 0.420
COc1ncc(-c2ccc3nccc(-c4ccnnc4)c3c2)cc1NS(=O)(=O)c1ccc(F)cc1F [GSK2126458] | 0.395
Nc1cc(C(F)(F)F)c(-c2nc(N3CCOCC3)nc(N3CCOCC3)n2)cn1 [PQR309] | 0.5267

Same assay, conditions: hepatocytes, 3 uM

Structure (SMILES) | Relative PINPLA3 mRNA
Cc1c(CN2CCN(C(=O)[C@H](C)O)CC2)sc2c(N3CCOCC3)nc(-c3cnc(N)nc3)nc12 [Apitolisib] | 0.365
Nc1cc(C(F)(F)F)c(-c2nc(N3CCOCC3)nc(N3CCOCC3)n2)cn1 [PQR309] | 0.4657

Same assay, conditions: hepatocytes, 10 uM

Structure (SMILES) | Relative PINPLA3 mRNA
COc1ncc(-c2ccc3nccc(-c4ccnnc4)c3c2)cc1NS(=O)(=O)c1ccc(F)cc1F [GSK2126458] | 0.800

Same assay, conditions: summary of mTOR/PI3K inhibitor testing

Structure (SMILES) | PNPLA3 expression by reported compound specificity (in words)
Cc1c(CN2CCN(C(=O)[C@H](C)O)CC2)sc2c(N3CCOCC3)nc(-c3cnc(N)nc3)nc12 [Apitolisib] | most robust PNPLA3 inhibition
Nc1cc(C(F)(F)F)c(-c2nc(N3CCOCC3)nc(N3CCOCC3)n2)cn1 [PQR309] | most robust PNPLA3 inhibition

From patent US20220107328A1, “METHODS OF TREATING LIVER DISEASES” (Camp4 Therapeutics Corporation, priority 2018, published 2022)
